Source: patent US9499550B2 (BRISTOL-MYERS SQUIBB COMPANY, priority 2012, dated 2016)

Columns and labels:
[1] = tested on: HCV genotype 1b (Con1) replicon in HUH-7 cells; test: HCV replicon luciferase reporter assay, genotype 1b; format: cell-based; conditions: Hepatitis C virus, Huh-7, 72 h, HCV genotype 1b replicon luciferase, 3 days incubation, read-out: LE_1b (EC50, range)
Method in brief: (§1)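 Replicon inhibition for both genotypes was measured as Renilla luciferase signal (EnduRen, 7.5 μM final, 2 h) after 3-day, 37° C exposure of replicon-bearing HUH-7 cells in 4% FCS DMEM, 0.5% DMSO. The 1b construct carries S1179I; the 1a H77 construct carries P1496L and S2204I. Twenty-point, 3-fold dilutions were fitted four-parametrically for EC50, and CC50 was taken from multiplexed Cell Titer-Blue.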

[2] = tested on: HCV genotype 1a (H77 strain) replicon in HUH-7 cells; test: HCV replicon luciferase reporter assay, genotype 1a; format: cell-based; conditions: Hepatitis C virus, Huh-7, 72 h, HCV genotype 1a replicon luciferase, 3 days incubation, read-out: LE_1a (EC50, range)
Method in brief: as §1

Row | Compound | EC50 [1] [nM] | EC50 [2] [nM]
1 | CC[C@@H]1C[C@H](C)CC/C=C\[C@@H]2C[C@@]2(C(=O)NS(=O)(=O)C2(CF)CC2)NC(=O)[C@@H]2C[C@@H](Oc3nccc4c5c(ccc34)N(C)CCO5)CN2C(=O)[C@H]1NC(=O)OC(C)(C)C(F)(F)F [Compound 5465, 1,1,1-trifluoro-2-methylpropan-2-yl((2R,6S,7R,9R,13aS,14aR,16aS,Z)-7-ethyl-14a-(((1-(fluoromethyl)cyclopropyl)sulfonyl)carbamoyl)-9-methyl-2-((4-methyl-3,4-dihydro-2H-[1,4]oxazino[2,3-f]isoquinolin-7-yl)oxy)-5,16-dioxo-1,2,3,5,6,7,8,9,10,11,13a,14,14a,15,16,16a-hexadecahydrocyclopropa[e]pyrrolo[1,2-a][1,4]diazacyclopentadecin-6-yl)carbamate] | 1.01 to 5 | 1.01 to 5
2 | [2H]C([2H])([2H])C(OC(=O)N[C@@H]1C(=O)N2C[C@H](Oc3ncc(OC)c4ccc(F)cc34)C[C@H]2C(=O)N[C@]2(C(=O)NS(=O)(=O)C3CC3)C[C@H]2/C=C\CC[C@@H](C)C[C@H]1CC)(C([2H])([2H])[2H])C(F)(F)F [Compound 5467] | 0.1 to 0.5 | 1.01 to 5
3 | CC[C@@H]1C[C@H](C)CC/C=C\[C@@H]2C[C@@]2(C(=O)NS(=O)(=O)C2CC2)NC(=O)[C@@H]2C[C@@H](Oc3ncc(OC)c4ccc(F)cc34)CN2C(=O)[C@H]1NC(=O)OC(C)(C)C(C)(F)F [Compound 5469, 3,3-difluoro-2-methylbutan-2-yl((2R,6S,7R,9R,13aS,14aR,16aS,Z)-14a-((cyclopropylsulfonyl)carbamoyl)-7-ethyl-2-((7-fluoro-4-methoxyisoquinolin-1-yl)oxy)-9-methyl-5,16-dioxo-1,2,3,5,6,7,8,9,10,11,13a,14,14a,15,16,16a-hexadecahydrocyclopropa[e]pyrrolo[1,2-a][1,4]diazacyclopentadecin-6-yl)carbamate] | 0.1 to 0.5 | 1.01 to 5
4 | [2H]C([2H])([2H])C(OC(=O)N[C@@H]1C(=O)N2C[C@H](Oc3nccc4cc(OC)c(F)cc34)C[C@H]2C(=O)N[C@]2(C(=O)NS(=O)(=O)C3CC3)C[C@H]2/C=C\CC[C@@H](C)C[C@H]1CC)(C([2H])([2H])[2H])C(F)(F)F [Compound 5471] | 0.1 to 0.5 | 1.01 to 5
5 | CC[C@@H]1C[C@@H](C)CC/C=C\[C@@H]2C[C@@]2(C(=O)NS(=O)(=O)C2CC2)NC(=O)[C@@H]2C[C@@H](Oc3nccc4cc(OC)c(F)cc34)CN2C(=O)[C@H]1NC(=O)OC(C)(C)C(C)(F)F [Compound 5472, 3,3-difluoro-2-methylbutan-2-yl((2R,6S,7R,9S,13aS,14aR,16aS,Z)-14a-((cyclopropylsulfonyl)carbamoyl)-7-ethyl-2-((7-fluoro-6-methoxyisoquinolin-1-yl)oxy)-9-methyl-5,16-dioxo-1,2,3,5,6,7,8,9,10,11,13a,14,14a,15,16,16a-hexadecahydrocyclopropa[e]pyrrolo[1,2-a][1,4]diazacyclopentadecin-6-yl)carbamate] | 1.01 to 5 | 1.01 to 5
6 | CC[C@@H]1C[C@H](C)CC/C=C\[C@@H]2C[C@@]2(C(=O)NS(=O)(=O)C2CC2)NC(=O)[C@@H]2C[C@@H](Oc3nccc4cc(OC)c(F)cc34)CN2C(=O)[C@H]1NC(=O)OC(C)(C)C(C)(F)F [Compound 5473, 3,3-difluoro-2-methylbutan-2-yl((2R,6S,7R,9R,13aS,14aR,16aS,Z)-14a-((cyclopropylsulfonyl)carbamoyl)-7-ethyl-2-((7-fluoro-6-methoxyisoquinolin-1-yl)oxy)-9-methyl-5,16-dioxo-1,2,3,5,6,7,8,9,10,11,13a,14,14a,15,16,16a-hexadecahydrocyclopropa[e]pyrrolo[1,2-a][1,4]diazacyclopentadecin-6-yl)carbamate] | 0.1 to 0.5 | 1.01 to 5
7 | COc1ccc2c(O[C@@H]3C[C@H]4C(=O)N[C@]5(C(=O)NS(=O)(=O)C6CC6)C[C@H]5/C=C\CC[C@H](C)C[C@@H](C)[C@H](NC(=O)OC(C)(C)C(C)(F)F)C(=O)N4C3)nc(-c3ccc(OC(C)C)cn3)cc2c1 [Compound 5474, 3,3-difluoro-2-methylbutan-2-yl((2R,6S,7R,9S,13aS,14aR,16aS,Z)-14a-((cyclopropylsulfonyl)carbamoyl)-2-((3-(5-isopropoxypyridin-2-yl)-6-methoxyisoquinolin-1-yl)oxy)-7,9-dimethyl-5,16-dioxo-1,2,3,5,6,7,8,9,10,11,13a,14,14a,15,16,16a-hexadecahydrocyclopropa[e]pyrrolo[1,2-a][1,4]diazacyclopentadecin-6-yl)carbamate] | 1.01 to 5 | 1.01 to 5
8 | COc1ccc2c(O[C@@H]3C[C@H]4C(=O)N[C@]5(C(=O)NS(=O)(=O)C6CC6)C[C@H]5/C=C\CC[C@@H](C)C[C@@H](C)[C@H](NC(=O)OC(C)(C)C(C)(F)F)C(=O)N4C3)nc(-c3ccc(OC(C)C)cn3)cc2c1 [Compound 5475, 3,3-difluoro-2-methylbutan-2-yl((2R,6S,7R,9R,13aS,14aR,16aS,Z)-14a-((cyclopropylsulfonyl)carbamoyl)-2-((3-(5-isopropoxypyridin-2-yl)-6-methoxyisoquinolin-1-yl)oxy)-7,9-dimethyl-5,16-dioxo-1,2,3,5,6,7,8,9,10,11,13a,14,14a,15,16,16a-hexadecahydrocyclopropa[e]pyrrolo[1,2-a][1,4]diazacyclopentadecin-6-yl)carbamate] | 0.51 to 1 | 0.51 to 1
9 | COc1ccc2c(O[C@@H]3C[C@H]4C(=O)N[C@]5(C(=O)NS(=O)(=O)C6(C)CC6)C[C@H]5/C=C\CC[C@H](C)C[C@@H](C)[C@H](NC(=O)OC(C)(C)C(C)(F)F)C(=O)N4C3)nc(-c3ccc(OC(C)C)cn3)cc2c1 [Compound 5476, 3,3-difluoro-2-methylbutan-2-yl((2R,6S,7R,9S,13aS,14aR,16aS,Z)-2-((3-(5-isopropoxypyridin-2-yl)-6-methoxyisoquinolin-1-yl)oxy)-7,9-dimethyl-14a-(((1-methylcyclopropyl)sulfonyl)carbamoyl)-5,16-dioxo-1,2,3,5,6,7,8,9,10,11,13a,14,14a,15,16,16a-hexadecahydrocyclopropa[e]pyrrolo[1,2-a][1,4]diazacyclopentadecin-6-yl)carbamate] | 1.01 to 5 | 5.01 to 35
10 | COc1ccc2c(O[C@@H]3C[C@H]4C(=O)N[C@]5(C(=O)NS(=O)(=O)C6(C)CC6)C[C@H]5/C=C\CC[C@@H](C)C[C@@H](C)[C@H](NC(=O)OC(C)(C)C(C)(F)F)C(=O)N4C3)nc(-c3ccc(OC(C)C)cn3)cc2c1 [Compound 5477, 3,3-difluoro-2-methylbutan-2-yl((2R,6S,7R,9R,13aS,14aR,16aS,Z)-2-((3-(5-isopropoxypyridin-2-yl)-6-methoxyisoquinolin-1-yl)oxy)-7,9-dimethyl-14a-(((1-methylcyclopropyl)sulfonyl)carbamoyl)-5,16-dioxo-1,2,3,5,6,7,8,9,10,11,13a,14,14a,15,16,16a-hexadecahydrocyclopropa[e]pyrrolo[1,2-a][1,4]diazacyclopentadecin-6-yl)carbamate] | 1.01 to 5 | 1.01 to 5
11 | CC[C@@H]1C[C@H](C)CC/C=C\[C@@H]2C[C@@]2(C(=O)NS(=O)(=O)C2CC2)NC(=O)[C@@H]2C[C@@H](Oc3nc(-c4ccc(OC(C)C)cn4)cc4cc(OC)ccc34)CN2C(=O)[C@H]1NC(=O)OC(C)(C)C [Compound 5479, tert-butyl ((2R,6S,7R,9R,13aS,14aR,16aS,Z)-14a-((cyclopropylsulfonyl)carbamoyl)-7-ethyl-2-((3-(5-isopropoxypyridin-2-yl)-6-methoxyisoquinolin-1-yl)oxy)-9-methyl-5,16-dioxo-1,2,3,5,6,7,8,9,10,11,13a,14,14a,15,16,16a-hexadecahydrocyclopropa[e]pyrrolo[1,2-a][1,4]diazacyclopentadecin-6-yl)carbamate] | 0.51 to 1 | 1.01 to 5
12 | CC[C@@H]1C[C@H](C)CC/C=C\[C@@H]2C[C@@]2(C(=O)NS(=O)(=O)C2(C)CC2)NC(=O)[C@@H]2C[C@@H](Oc3nc(-c4ccc(OC(C)C)cn4)cc4cc(OC)ccc34)CN2C(=O)[C@H]1NC(=O)OC(C)(C)C [Compound 5481, tert-butyl ((2R,6S,7R,9R,13aS,14aR,16aS,Z)-7-ethyl-2-((3-(5-isopropoxypyridin-2-yl)-6-methoxyisoquinolin-1-yl)oxy)-9-methyl-14a-(((1-methylcyclopropyl)sulfonyl)carbamoyl)-5,16-dioxo-1,2,3,5,6,7,8,9,10,11,13a,14,14a,15,16,16a-hexadecahydrocyclopropa[e]pyrrolo[1,2-a][1,4]diazacyclopentadecin-6-yl)carbamate] | 1.01 to 5 | 1.01 to 5
13 | CC[C@@H]1C[C@H](C)CC/C=C\[C@@H]2C[C@@]2(C(=O)NS(=O)(=O)C2CC2)NC(=O)[C@@H]2C[C@@H](Oc3nc(-c4ccc(OC(C)C)cn4)cc4cc(OC)ccc34)CN2C(=O)[C@H]1NC(=O)OC(C)(C)C(C)(F)F [Compound 5483, 3,3-difluoro-2-methylbutan-2-yl((2R,6S,7R,9R,13aS,14aR,16aS,Z)-14a-((cyclopropylsulfonyl)carbamoyl)-7-ethyl-2-((3-(5-isopropoxypyridin-2-yl)-6-methoxyisoquinolin-1-yl)oxy)-9-methyl-5,16-dioxo-1,2,3,5,6,7,8,9,10,11,13a,14,14a,15,16,16a-hexadecahydrocyclopropa[e]pyrrolo[1,2-a][1,4]diazacyclopentadecin-6-yl)carbamate] | 1.01 to 5 | 1.01 to 5
